Our source for the IC50 values is patent US20240300980A1, “HETEROCYCLIC COMPOUNDS AS KRAS INHIBITOR, AND PREPARATION THEREFOR AND USE THEREOF IN TREATMENT” (SHANGHAI KECHOW PHARMA, INC., priority 2021, published 2024).

The assay has as its system AGS cells (KRAS^G12D). In words: Detection of cell proliferation in vitro by MTT/MTS method (cell activity experiment). Format: cell-based. The following applies: Homo sapiens, AGS, 72 h, AGS cells; MTT/MTS; 3 days of drug treatment; read-out: AGS IC50. The essentials: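 After 3-day compound exposure (final DMSO 0.5%), viability of AGS (KRAS G12D) cells, plated 1000/well one day before dosing, was measured at 490 nm following 4 h MTT or MTS incubation. IC50 was fitted from dose–effect curves relative to DMSO-treated wells.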
Background: Tetrazolium dyes change colour on reduction, which living cells bring about.
One may read the IC50 as the concentration needed to halve the response being measured. On to `CC1CCCc2cc(O)cc(-c3c4c(c5c(N6C[C@H]7CC[C@@H](C6)N7)nc(OC[C@@]67CCCN6C[C@H](F)C7)nc5c3F)OCO4)c21` (stereo partly drawn) [Example 391, 4-(9-((1R,5S)-3,8-diazabicyclo[3.2.1]octan-3-yl)-5-fluoro-7-(((2R,7aS)-2-fluorotetrahydro-1H-pyrrolizin-7a(5H)-yl)methoxy)-[1,3]dioxolo[4,5-f]quinazolin-4-yl)-5-methyl-5,6,7,8-tetrahydronaphthalen-2-ol], for which the IC50 is 100 nM.
With `Oc1cc(-c2ccc3c(N4C[C@H]5CC[C@@H](C4)N5)nc(OCC4(CN5CCCC5)CC4)nc3c2F)c2c(F)c(F)ccc2c1` [Example 101, 4-(4-((1R,5S)-3,8-diazabicyclo[3.2.1]octan-3-yl)-8-fluoro-2-((1-(pyrrolidin-1-ylmethyl)cyclopropyl)methoxy)quinazolin-7-yl)-5,6-difluoronaphthalen-2-ol], the IC50 was determined as 9.4 nM.
With `Oc1cc2c(c(-c3ncc4c(N5C[C@H]6CC[C@@H](C5)N6)nc(OC[C@@]56CCCN5C[C@H](F)C6)nc4c3F)c1)C(C(F)F)CCC2` (stereo partly drawn) [Example 261, 4-(4-((1R,5S)-3,8-diazabicyclo[3.2.1]octan-3-yl)-8-fluoro-2-(((2R,7aS)-2-fluorotetrahydro-1H-pyrrolizin-7a(5H)-yl)methoxy)pyrido[4,3-d]pyrimidin-7-yl)-5-(difluoromethyl)-5,6,7,8-tetrahydronaphthalen-2-ol], the IC50 came to 1930 nM.
For the compound `CCc1c(F)ccc2cc(O)cc(-c3ncc4c(N5C[C@H]6CC[C@@H](C5)O6)nc(OC[C@@]56CCCN5C[C@H](F)C6)nc4c3F)c12` [Example 13, 4-(4-((1R,5S)-8-oxa-3-azabicyclo[3.2.1]octan-3-yl)-8-fluoro-2-(((2R,7aS)-2-fluorotetrahydro-1H-pyrrolizin-7a(5H)-yl)methoxy)pyrido[4,3-d]pyrimidin-7-yl)-5-ethyl-6-fluoronaphthalen-2-ol], the IC50 was found to be 320 nM.
Consider `CCC1CCc2cc(O)cc(-c3c(F)c4nc(OC[C@@]56CCCN5C[C@H](F)C6)nc(N5C[C@H]6CC[C@@H](C5)N6)c4c4nccn34)c21` (stereo partly drawn) [Example 415, 7-(10-((1R,5S)-3,8-diazabicyclo[3.2.1]octan-3-yl)-6-fluoro-8-(((2R,7aS)-2-fluorotetrahydro-1H-pyrrolizin-7a(5H)-yl)methoxy)imidazo[1′,2′:1,2]pyrido[4,3-d]pyrimidin-5-yl)-1-ethyl-2,3-dihydro-1H-inden-5-ol], for which the IC50 worked out at 60 nM.
Turning to `C#Cc1c(F)ccc2cc(O)cc(-c3ncc4c(N5CC6CCC(C5)C6[S+](C)[O-])nc(OC[C@@]56CCCN5C[C@H](F)C6)nc4c3F)c12` (stereo partly drawn) [Example 65, 5-ethynyl-6-fluoro-4-(8-fluoro-2-(((2R,7aS)-2-fluorotetrahydro-1H-pyrrolizin-7a(5H)-yl)methoxy)-4-((1R,5S, 8R)-8-(methylsulfinyl)-3-azabicyclo[3.2.1]octan-3-yl)pyrido[4,3-d]pyrimidin-7-yl) naphthalen-2-ol], the IC50 was above 10000 nM.
With `C#Cc1cccc2cc(O)cc(-c3ccc4c(N5C[C@H]6CC[C@@H](C5)N6)nc(OC[C@@]56CCCN5C[C@H](F)C6)nc4n3)c12` [Example 144, 4-(4-((1R,5S)-3,8-diazabicyclo[3.2.1]octan-3-yl)-2-(((2R,7aS)-2-fluorotetrahydro-1H-pyrrolizin-7a(5H)-yl)methoxy)pyrido[2,3-d]pyrimidin-7-yl)-5-ethynylnaphthalen-2-ol], the IC50 is above 2500 nM.
As for `C[C@H]1CCCc2cc(O)cc(-c3ncc4c(N5CC6CCC(C5)N6)nc(OC[C@@]56CCCN5C[C@H](F)C6)nc4c3F)c21` (single isomer, unassigned) [Example 226, (S)-4-(4-((1R,5S)-3,8-diazabicyclo[3.2.1]octan-3-yl)-8-fluoro-2-(((2R,7aS)-2-fluorotetrahydro-1H-pyrrolizin-7a(5H)-yl)methoxy)pyrido[4,3-d]pyrimidin-7-yl)-5-methyl-5,6,7,8-tetrahydronaphthalen-2-ol or (R)-4-(4-((1R,5S)-3,8-diazabicyclo[3.2.1]octan-3-yl)-8-fluoro-2-(((2R,7aS)-2-fluorotetrahydro-1H-pyrrolizin-7a(5H)-yl)methoxy)pyrido[4,3-d]pyrimidin-7-yl)-5-methyl-5,6,7,8-tetrahydronaphthalen-2-ol], the IC50 worked out at 2.4 nM.
Turning to `Oc1cc(-c2ccc3c(N4C[C@H]5CC[C@@H](C4)N5)nc(OC[C@@]45CCCN4C[C@H](F)C5)nc3c2F)c2c(F)c(F)ccc2c1` [Example 94, 4-(4-((1R,5S)-3,8-diazabicyclo[3.2.1]octan-3-yl)-8-fluoro-2-(((2R,7aS)-2-fluorotetrahydro-1H-pyrrolizin-7a(5H)-yl)methoxy)quinazolin-7-yl)-5,6-difluoronaphthalen-2-ol], the IC50 was found to be 1.5 nM.
With `C#Cc1cccc2cc(O)cc(-c3ncc4c(N5CCC6(CCCN6)CC5)nc(OC[C@@]56CCCN5C[C@H](F)C6)nc4c3F)c12` [Example 48, 5-ethynyl-4-(8-fluoro-2-(((2R,7aS)-2-fluorotetrahydro-1H-pyrrolizin-7a(5H)-yl)methoxy)-4-(1,8-diazaspiro[4.5]decan-8-yl)pyrido[4,3-d]pyrimidin-7-yl) naphthalen-2-ol] the figure was 5160 nM; with `C#Cc1c(F)ccc2cc(O)cc(-c3ccc4c(N5C[C@H]6CC[C@@H](C5)N6)nc(OC[C@@]56CCCN5C[C@H](F)C6)nc4c3O)c12` [Example 328, 4-((1R,5S)-3,8-diazabicyclo[3.2.1]octan-3-yl)-7-(8-ethynyl-7-fluoro-3-hydroxynaphthalen-1-yl)-2-(((2R,7aS)-2-fluorotetrahydro-1H-pyrrolizin-7a(5H)-yl)methoxy)quinazolin-8-ol], 8910 nM.
Take `Nc1cc2ccc(F)c(Cl)c2c(-c2ncc3c(N4C[C@H]5CC[C@@H](C4)N5)nc(OC[C@@]45CCCN4C[C@H](F)C5)nc3c2F)n1` [Example 39, 1-(4-((1R,5S)-3,8-diazabicyclo[3.2.1]octan-3-yl)-8-fluoro-2-(((2R,7aS)-2-fluorotetrahydro-1H-pyrrolizin-7a(5H)-yl)methoxy)pyrido[4,3-d]pyrimidin-7-yl)-8-chloro-7-fluoroisoquinolin-3-amine]: the concentration for half-maximal inhibition (IC50) is above 2500 nM.
For the compound `C#Cc1c(F)ccc2cc(O)cc(-c3ncc4c(-c5ccn(C(=O)CO)c5)nc(OC[C@@]56CCCN5C[C@H](F)C6)nc4c3F)c12` [Example 86, 1-(3-(7-(8-ethynyl-7-fluoro-3-hydroxynaphthalen-1-yl)-8-fluoro-2-(((2R, 7aS)-2-fluorotetrahydro-1H-pyrrolizin-7a(5H)-yl)methoxy)pyrido[4,3-d]pyrimidin-4-yl)-1H-pyrrol-1-yl)-2-hydroxyethan-1-one], the IC50 is above 10000 nM.
As for `C#Cc1c(F)ccc2cc(O)cc(-c3cc4nc(OC[C@@]56CCCN5C[C@H](F)C6)c(C(F)(F)F)c(N5C[C@H]6CC[C@@H](C5)N6)c4cn3)c12` [Example 195, 4-(4-((1R,5S)-3,8-diazabicyclo[3.2.1]octan-3-yl)-2-(((2R,7aS)-2-fluorotetrahydro-1H-pyrrolizin-7a(5H)-yl)methoxy)-3-(trifluoromethyl)-1,6-naphthyridin-7-yl)-5-ethynyl-6-fluoronaphthalen-2-ol], the IC50 was above 2500 nM.
